We go through three compounds from paper PMC5470993, “Discovery and characterization of small molecule Rac1 inhibitors” (Oncotarget, 2017).

In experiment [1] the target is T1, Rac1 (His-Rac1) (Homo sapiens, UniProt P63000).
T1 construct: wild type by context
The experiment can be described thus: fluorescence polarization competition with mant-GDP. It counts as binding.

Experiment [2] addresses T1, Rac1 (His-Rac1). The experiment can be described thus: GST-PAK1 pull-down of Rac1-GTP-γS, immunoblot. It counts as binding.
Experiment [3] deals with T2, Rac1 (endogenous, CD18/HPAF cells) (Homo sapiens, UniProt P63000).
T2 construct: endogenous Rac1 of CD18/HPAF human pancreatic cancer cells; Rac1-GTP captured with GST-PAK1 and blotted with Rac1 antibody 23A8
The experiment can be described thus: Rac1-GTP pull-down with GST-PAK1 from EGF-stimulated cells, immunoblot. It counts as cell-based. The following applies: intact cells, 2 h compound, then EGF 100 ng/ml 5 min.

Experiment [4] has as its target T1, Rac1 (His-Rac1). Kind of experiment: GST-PAK1 pull-down of Rac1-GTP-γS, immunoblot. The following applies: read-out: apparent binding affinity. (Immunoblotting shows a protein as a band on a membrane.)

As a reminder, the Ki is the equilibrium dissociation constant of an inhibitor or competing ligand from its target. High values mean a looser hold on the target, low ones a stronger hold on the target. The IC50 is the concentration that gives 50% inhibition. A word on the EC50: it is the midpoint of the concentration-response curve. A low value points to a more potent agent.

Like-named read-outs stand apart in the source and are kept apart here.

At Rac1 (His-Rac1) [1], `CC(=O)c1cccc(NC(=O)c2ccc(-c3cccc([N+](=O)[O-])c3)o2)c1` [#1, compound #1] showed an inhibition constant Ki of 6.8 ± 1.4 µM. In addition, the concentration for half-maximal inhibition (IC50) on Rac1 (His-Rac1) [2] (read-out: IC50) amounted to 0.095 ± 0.021 µM. Moreover, the response in experiment [3] was half-maximal at 8.3 ± 1.7 µM (EC50).

For the compound `Nc1nc2c(ncn2[C@@H]2O[C@H](COP(=O)(O)OP(=O)(O)OP(O)(O)=S)[C@@H](O)[C@H]2O)c(=O)[nH]1` [GTP-γS], the Kd on Rac1 (His-Rac1) [4] was found to be 0.243 ± 0.093 µM.

For `Cc1cc(C)cc(NC(=O)Cn2cc(C(=O)c3cccs3)c3ccccc32)c1` [#6, compound #6], the IC50 on Rac1 (His-Rac1) [2] was found to be 0.088 ± 0.048 µM. In experiment [3], this compound had a concentration giving a half-maximal response (EC50) of 22.4 ± 3.2 µM.
